In ChEMBL document CHEMBL5042495, “Lead Optimization of Influenza Virus RNA Polymerase Inhibitors Targeting PA-PB1 Interaction” (J Med Chem, 2022):
pEC50: −log10 of the molar value. Calls of active or inactive are those of the source. The calls are words filed in the database; no cut-off is given here.

Tests used:
HEK293T [1] = experiment: (§1) Inhibition of Influenza A virus RNA dependent RNA polymerase activity in HEK293T cells co-transfected with pPoll/NP(0)GFP(0) at 10 to 40 uM after 2 hrs post-transfection followed by compound addition incubated for 22 hrs by fluorescence microscopic analysis; assay type: cell-based; settings: dose 10-40 µM
[2] = Cytotoxicity in dog MDCK cells assessed as reduction in cell viability incubated for 48 hrs by crystal violet staining based assay; assay type: toxicity, Canis lupus familiaris
Influenza A virus [3] = experiment: Antiviral activity against Influenza A virus A/WSN/33(H1N1) strain infected in MDCK cells assessed as reduction in viral infection incubated for 48 hrs by crystal violet staining based assay; assay type: functional, organism-based
HEK293T [4] = experiment: (§2) Inhibition of Influenza A virus RNA dependent RNA polymerase activity in HEK293T cells co-transfected with pPoll/NP(0)GFP(0) after 2 hrs post-transfection followed by compound addition incubated for 22 hrs by fluorescence microscopic analysis; assay type: cell-based
HEK293T [5] = experiment: as §1, with “pPoll/NP(0)GFP(0) assessed as reduction on number of GFP positive cells” for “pPoll/NP(0)GFP(0)”, “10” for “10 to 40”; assay type: cell-based
Influenza A virus [6] = experiment: Antiviral activity against Influenza A virus B/Lee/40(type B) strain infected in MDCK cells assessed as reduction in viral infection incubated for 48 hrs by crystal violet staining based assay; assay type: functional, organism-based
Influenza A virus [7] = experiment: Antiviral activity against Influenza A virus A/Aichi/8/68(H3N2) strain infected in MDCK cells assessed as reduction in viral infection incubated for 48 hrs by crystal violet staining based assay; assay type: functional, organism-based
Influenza A virus [8] = experiment: Antiviral activity against Influenza A virus A/Virginia/ATCC2/2009(H1N1) strain infected in MDCK cells assessed as reduction in viral infection incubated for 48 hrs by crystal violet staining based assay; assay type: functional, organism-based
Influenza A virus [9] = experiment: Antiviral activity against Influenza A virus A/California/7/2009(H1N1) strain infected in MDCK cells assessed as reduction in viral infection incubated for 48 hrs by crystal violet staining based assay; assay type: functional, organism-based
Influenza A virus [10] = experiment: Antiviral activity against Influenza A virus A/Puerto Rico/8/34(H1N1) strain infected in MDCK cells assessed as reduction in viral infection incubated for 48 hrs by crystal violet staining based assay; assay type: functional, organism-based
HEK293T [11] = experiment: as §2, with “pPoll/NP(0)GFP(0) assessed as reduction on number of GFP positive cells at 10 nM” for “pPoll/NP(0)GFP(0)”; assay type: cell-based

With `CCC(C)(C)n1nnnc1C(c1cc2cccc(C)c2[nH]c1=O)N(Cc1ccccc1)Cc1ccc(F)cc1` (stereo unspecified) the inhibition (HEK293T [1]) was “Dose-Dependent Effect”, the CC50 at 48 h [2] was greater than 83 µM and the pEC50 (Influenza A virus [3]) was 6.24.
For `CCc1ccc2[nH]c(=O)c(CN(Cc3ccc(C(C)(C)C)cc3)[C@@H](C)c3ccc(OC)cc3)cc2c1`, the inhibition (HEK293T [4]) was “Active”, the inhibition (HEK293T [1]) was “Dose-Dependent Effect” and the CC50 at 48 h [2] was greater than 5 µM. The inhibition (HEK293T [5]) was “Active” and the pEC50 (Influenza A virus [3]) was 6.99.
In the case of `COc1ccc2[nH]c(=O)c(CN(Cc3ccc(C(C)(C)C)cc3)C(C)c3ccc(OC)c(Cl)c3)cc2c1` (stereo unspecified), the pEC50 (Influenza A virus [6]) was 7.10, the inhibition (HEK293T [4]) was “Active” and the pEC50 (Influenza A virus [7]) was 7.07. The pEC50 (Influenza A virus [8]) was 7.11, the pEC50 (Influenza A virus [9]) was 6.64 and the CC50 at 48 h [2] was greater than 10 µM. For the same compound, the inhibition (HEK293T [5]) was “Active”, the pEC50 (Influenza A virus [10]) was 7.14 and the pEC50 (Influenza A virus [3]) was 7.21.
In the case of `C[C@@H](c1ccc(OC(F)(F)F)cc1)N(Cc1ccc(C(C)(C)C)cc1)Cc1cc2cc(C3CC3)ccc2[nH]c1=O`, the pEC50 (Influenza A virus [6]) was 6.64, the inhibition (HEK293T [4]) was “Active” and the pEC50 (Influenza A virus [7]) was 7.14. The pEC50 (Influenza A virus [8]) was 7.19, the pEC50 (Influenza A virus [9]) was 6.57 and the CC50 at 48 h [2] was greater than 10 µM. For the same compound, the inhibition (HEK293T [5]) was “Active”, the pEC50 (Influenza A virus [10]) was 7.17 and the pEC50 (Influenza A virus [3]) was 7.11.
For `CCOC(=O)C1=C[C@@H](OC(CC)CC)[C@H](NC(C)=O)[C@@H](N)C1` [OSELTAMIVIR PHOSPHATE], the pEC50 (Influenza A virus [7]) was 5.65, the pEC50 (Influenza A virus [8]) was 4.73 and the inhibition (HEK293T [1]) was “inactive”. It also gave a pEC50 (Influenza A virus [9]) of 5.34, a pEC50 (Influenza A virus [10]) of 4.94 and a pEC50 (Influenza A virus [3]) of 5.70.
For `CC(C)c1ccc2[nH]c(=O)c(CN(Cc3ccc(F)cc3)Cc3ccc(C(C)(C)C)cc3)cc2c1`, the CC50 at 48 h [2] was 7.9 µM and the pEC50 (Influenza A virus [3]) was 5.72.
In the case of `Cc1ccc2cc(C(C#N)N(Cc3ccc(F)cc3)Cc3ccc(C(C)C)cc3)c(=O)[nH]c2c1` (stereo unspecified), the CC50 at 48 h [2] was 21 µM and the pEC50 (Influenza A virus [3]) was 4.27.
With `Cc1ccc2[nH]c(=O)c(CN(Cc3ccc(OCC(=O)OC(C)(C)C)cc3)Cc3ccc(C(C)(C)C)cc3)cc2c1` the CC50 at 48 h [2] was greater than 10 µM and the pEC50 (Influenza A virus [3]) was 5.74.
Compound `Cc1ccc2[nH]c(=O)c(CN(Cc3ccccc3)Cc3ccc(C(C)(C)C)cc3)cc2c1` has a CC50 at 48 h [2] greater than 5 µM and a pEC50 (Influenza A virus [3]) of 6.04.
`CCCc1ccc2[nH]c(=O)c(CN(Cc3ccc(F)cc3)Cc3ccc(C(C)(C)C)cc3)cc2c1` showed a CC50 at 48 h [2] of 8.4 µM and a pEC50 (Influenza A virus [3]) of 4.55.
For `COc1ccc(C(C)N(Cc2ccc(C(C)(C)C)cc2)Cc2cc3cc(C)ccc3[nH]c2=O)cc1Cl` (stereo unspecified), the CC50 at 48 h [2] was greater than 10 µM and the pEC50 (Influenza A virus [3]) was 6.96.
With `Cc1ccc2cc(C(C#N)N(Cc3ccccc3)Cc3ccc(C(C)C)cc3)c(=O)[nH]c2c1` (stereo unspecified) the CC50 at 48 h [2] was greater than 83 µM and the pEC50 (Influenza A virus [3]) was 5.25.
Work on `Cc1cccc2cc(C(C#N)N(Cc3ccccc3)Cc3ccc(C(C)C)cc3)c(=O)[nH]c12` (stereo unspecified) yielded a CC50 at 48 h [2] greater than 83 µM and a pEC50 (Influenza A virus [3]) of 4.80.
`Cc1cccc2cc(C(C#N)N(Cc3ccccc3)Cc3ccc(F)cc3)c(=O)[nH]c12` (stereo unspecified) showed a CC50 at 48 h [2] greater than 83 µM and a pEC50 (Influenza A virus [3]) of 4.42.
Compound `Cc1ccc2[nH]c(=O)c(CN(Cc3ccc(F)cc3)Cc3ccc(C(C)(C)C)cc3)cc2c1` has a CC50 at 48 h [2] greater than 27 µM and a pEC50 (Influenza A virus [3]) of 6.41.
With `CC(C)(C)c1ccc(CN(Cc2ccc(C(F)(F)F)c(Cl)c2)Cc2cc3cc(C4CC4)ccc3[nH]c2=O)cc1` the CC50 at 48 h [2] was greater than 10 µM and the pEC50 (Influenza A virus [3]) was 6.20.
For `Cc1ccc2[nH]c(=O)c(CN(Cc3ccc(OC(F)(F)F)cc3)Cc3ccc(C(C)(C)C)cc3)cc2c1`, the CC50 at 48 h [2] was greater than 5 µM and the pEC50 (Influenza A virus [3]) was 6.31.
Compound `CCCOc1ccc(CN(Cc2ccc(C(C)(C)C)cc2)Cc2cc3cc(C)ccc3[nH]c2=O)cc1` has a CC50 at 48 h [2] greater than 5 µM and a pEC50 (Influenza A virus [3]) of 5.52.
For `COc1ccc([C@H](C)N(Cc2ccc(C(C)(C)C)cc2)Cc2cc3cc(C4CC4)ccc3[nH]c2=O)cc1`, the CC50 at 48 h [2] was greater than 10 µM and the pEC50 (Influenza A virus [3]) was 6.80.
`NC(=O)c1nc(F)cnc1O` [FAVIPIRAVIR] gave a pEC50 (Influenza A virus [9]) of 5.54 and a pEC50 (Influenza A virus [3]) of 5.72.
Work on `Cc1ccc2[nH]c(=O)c(C(C#N)N(Cc3ccccc3)Cc3ccc(C(C)C)cc3)cc2c1` (stereo unspecified) yielded a CC50 at 48 h [2] greater than 83 µM and a pEC50 (Influenza A virus [3]) of 4.82.
In the case of `Cc1ccc2cc(CN(Cc3ccc(F)cc3)Cc3ccc(C(F)(F)F)cc3)c(=O)[nH]c2c1`, the CC50 at 48 h [2] was greater than 33 µM and the pEC50 (Influenza A virus [3]) was 5.68.
Work on `COc1ccc2[nH]c(=O)c(CN(Cc3ccc(C(C)(C)C)cc3)Cc3ccc(C(F)(F)F)c(Cl)c3)cc2c1` yielded a CC50 at 48 h [2] greater than 10 µM and a pEC50 (Influenza A virus [3]) of 7.07.
`COc1ccc([C@H](C)N(Cc2ccc(OC(F)(F)F)cc2)Cc2cc3cc(Cl)ccc3[nH]c2=O)cc1` showed a CC50 at 48 h [2] greater than 10 µM and a pEC50 (Influenza A virus [3]) of 5.44.
`CN(C)c1ccc(CN(Cc2ccc(C(C)(C)C)cc2)Cc2cc3cc(Br)ccc3[nH]c2=O)cc1` showed a CC50 at 48 h [2] greater than 10 µM and a pEC50 (Influenza A virus [3]) of 6.28.
In the case of `Cc1ccc2[nH]c(=O)c(CN(Cc3ccc(OC(C)C)cc3)Cc3ccc(C(C)(C)C)cc3)cc2c1`, the CC50 at 48 h [2] was greater than 5 µM and the pEC50 (Influenza A virus [3]) was 5.82.
With `O=C1c2c(O)c(=O)ccn2N([C@@H]2c3ccccc3SCc3c2ccc(F)c3F)[C@@H]2COCCN12` [BALOXAVIR] the inhibition (HEK293T [11]) was “Active”, the pEC50 (Influenza A virus [6]) was 6.77 and the pEC50 (Influenza A virus [7]) was 8.40. For the same compound, the pEC50 (Influenza A virus [8]) was 8.22, the pEC50 (Influenza A virus [9]) was 8.40 and the pEC50 (Influenza A virus [10]) was 8.15. The pEC50 (Influenza A virus [3]) was 8.52.
Compound `CCc1ccc2[nH]c(=O)c(CN(Cc3ccc(OCOC)cc3)Cc3ccc(C(C)(C)C)cc3)cc2c1` has a CC50 at 48 h [2] greater than 10 µM and a pEC50 (Influenza A virus [3]) of 6.00.
Compound `C[C@@H](c1ccc(OC(F)(F)F)cc1)N(Cc1ccc(C(C)(C)C)cc1)Cc1cc2cc(C(F)(F)F)ccc2[nH]c1=O` has a CC50 at 48 h [2] greater than 10 µM and a pEC50 (Influenza A virus [3]) of 6.59.
For `CCc1ccc2[nH]c(=O)c(CN(Cc3ccc(F)cc3)Cc3ccc4ccccc4c3)cc2c1`, the CC50 at 48 h [2] was greater than 5 µM and the pEC50 (Influenza A virus [3]) was 5.68.
Compound `C[C@@H](c1ccc(OC(F)(F)F)cc1)N(Cc1ccc(C(F)(F)F)c(Cl)c1)Cc1cc2cc(C3CC3)ccc2[nH]c1=O` has a CC50 at 48 h [2] of 7.9 µM and a pEC50 (Influenza A virus [3]) of 6.92.
Compound `Cc1ccc2[nH]c(=O)c(CN(Cc3ccc(C(C)(C)C)cc3)Cc3ccc(N(C)C)c(Cl)c3)cc2c1` has a CC50 at 48 h [2] greater than 10 µM and a pEC50 (Influenza A virus [3]) of 6.66.
